Source: EP1056700B1, “MEDICINAL USES OF PHENYLALKANOLS AND DERIVATES” (ZingoTX Pty Ltd, priority 1997, dated 1999)

What was measured:
DRG neuronal cells = assay: Peak [Ca^2+]i transients in cultured dorsal root ganglion neurons (Fura-2); format: cell-based, rat; conditions: for Number of capsaicin-sensitive cells responding / Peak [Ca^2+]i (Average ±SD): 2 mM Ca^2+
Description: DRG from neonatal (3-5 days old) rat or adult Sprague-Dawley rats were incubated in Hanks CMF saline with 0.05% collagenase and 0.25% trypsin for 25 min at 37° C. Individual cells were obtained by trituration with fire polished Pasteur pipettes of diminishing diameters. Neurones were isolated from the cell suspension in 30% Percoll and then plated on collagen coated coverslips or in 24-well plates, then cultured in neurobasal medium with B27 supplement, 50 ng/ml 2.5 S nerve growth factor, 2 mM 1-glutamine and 100 U/ml penicillin/streptomycin. Cultures were maintained at 37° C with 5% CO2. 30% Percoll increases the percentage of capsaicin-sensitive DRG neurones up to 70%. For peak [Ca^2+]i transients measurements, cells on coverslips were incubated with 5 µM Fura-2 AM for 30 min at 37° C. The coverslips were then mounted on a chamber attached to a fast sample application perfusion system which allows changing solutions in the second range. Recordings were made on the stage of a Nikon Diaphot inverted microscope fitted with a Nikon 40 x Fluo (NA 0.85) DL Ph3 or 40 x Fluo (NA 1.3) oil objective. [Ca^2+]i was calculated from dual excitation wavelength (340/380 nm) fluorescence measurements following an intracellular calibration procedure by the Grynkiewicz equation, using MCID M2/M4 v.3.0 (Imaging Res. Inc.) software. Cells were continuously perfused with a solution consisting of 140 mM NaCl, 2 mM CaCl2, 5 mM KCl, 20 mM HEPES, 10 mM glucose, pH 7.4. To study KCl evoked depolarisation, 50 mM NaCl was replaced by equimolar KCl. Cytoplasmic localisation of Fura-2 was tested with the Mn^2+ quenching technique (Dedov and Roufogalis, 1998). All experiments were performed at room temperature (20-23°C).
Typical changes in [Ca^2+]i upon depolarisation were evoked by 50 mM KCl and by application of 1 µM capsaicin; both were applied for 30 sec. Capsaicin-evoked peak [Ca^2+]i transients are characterised by a fast rise and long-steady state [Ca^2+]i clearance from the cytoplasm. In capsaicin-sensitive cells the half-time of cytoplasmic Ca^2+ clearance was proportional to the amplitudes of peak [Ca^2+]i transients.
To examine the effect of gingerol derivatives, one or several compounds in succession at a concentration of 10 µM were applied for 1 min to the DRG neuronal cells followed by washing out for 4 min with physiological solution. To the capsaicin-sensitive cells, 10 µM capsaicin and 50 mM KCl were applied, respectively, to confirm the viability of the cells. In addition, morphological appearances of the cells were also examined at the end of experiment. […]

Cyclo-oxygenase (COX) = assay: Cyclo-oxygenase assay in RBL 2H3 cells (PGD2 EIA); format: cell-based, rat
Description: Cyclo-oxygenase (COX) assay was performed with cells in culture prepared from rat basophilic leukemia (RBL) 2H3 cell lines. Cells were cultured in EMEM containing 10% fetal calf serum and antibiotic until cells reached confluence. Harvested cells were subsequently seeded on 24-well plates at 1 x 10^6 cells/ml then incubated at 37°C for 3 hours. Cells were washed twice with incubation buffer (1.5 ml) containing 5 mM Hepes, 140 mM NaCl, 5 mM KCl, 0.6 mM MgCl2, 1 mM CaCl2 and […]. Cells were then covered with 0.49 ml of buffer, followed by addition of samples/solvents (0.005 ml) and incubated at 37 °C for 5 min on an orbital shaker. Arachidonic acid (0.005 ml, containing 50% EtOH) was subsequently added, and the plate was incubated at similar conditions for a further 10 min. The supernatant (0.1 ml) was aliquoted for methoxime derivatisation of PGD2, which was carried out by heating the supernatant with methoxime solution (1:1) at 60 °C for 30 min according to the instructions provided with the kit. The resultant solution was diluted with EIA buffer and stored on ice for EIA, following the protocol provided with the kit.
Validation of COX enzyme activity was carried out using EIA in which the enzyme activity was characterised against various concentrations of AA and a time course of enzyme activity.
[…] Indomethacin was used as reference compound. The concentration of DMSO in the assay was maintained at 1.5%.

Lipoxygenase (LP) = molecular target: T1, Lipoxygenase (LP) (Rattus norvegicus, UniProt P12527); assay: Lipoxygenase assay with cell-free enzyme from RBL 2H3 cells (EIA); format: biochemical; conditions: for activity at 10 µM: final concentration of 10 µM
T1 construct: cell-free enzyme (Wong et al, 1991) prepared from rat basophilic leukemia (RBL) 2H3 cell lines; endogenous in cells; host or cells: RBL 2H3 (rat basophilic leukemia), 15,000 g supernatant of cells disrupted by nitrogen cavitation
T1 sequence (P12527 1-673): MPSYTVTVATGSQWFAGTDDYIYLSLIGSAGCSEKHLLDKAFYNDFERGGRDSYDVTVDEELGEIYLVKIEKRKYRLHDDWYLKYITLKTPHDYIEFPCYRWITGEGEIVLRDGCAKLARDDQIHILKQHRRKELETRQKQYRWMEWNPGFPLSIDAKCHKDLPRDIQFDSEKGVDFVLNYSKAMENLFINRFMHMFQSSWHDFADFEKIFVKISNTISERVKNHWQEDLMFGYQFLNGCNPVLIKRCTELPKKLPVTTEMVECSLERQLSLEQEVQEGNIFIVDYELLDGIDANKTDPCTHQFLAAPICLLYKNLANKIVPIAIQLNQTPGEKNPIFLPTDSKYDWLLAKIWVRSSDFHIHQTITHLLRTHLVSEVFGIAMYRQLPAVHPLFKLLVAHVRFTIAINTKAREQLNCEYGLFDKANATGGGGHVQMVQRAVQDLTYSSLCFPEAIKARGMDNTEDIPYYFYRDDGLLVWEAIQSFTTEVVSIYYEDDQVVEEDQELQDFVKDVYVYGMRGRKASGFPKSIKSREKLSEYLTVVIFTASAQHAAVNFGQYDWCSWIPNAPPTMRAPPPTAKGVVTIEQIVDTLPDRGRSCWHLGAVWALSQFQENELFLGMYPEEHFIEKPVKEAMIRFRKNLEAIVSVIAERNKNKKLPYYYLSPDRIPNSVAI
Description: Lipoxygenase (LP) assay was performed with cell-free enzyme (Wong et al, 1991) prepared from rat basophilic leukemia (RBL) 2H3 cell lines. Cells were cultured in EMEM containing 10% fetal calf serum and antibiotic until cells reached confluence. Harvested cells were resuspended in Hepes (10 mM) buffer, pH 7.4, containing 1 mM EDTA at 1 x 10^7 cells/ml, and disrupted by nitrogen cavitation using a Parr bomb at 750 psi for 15 min. The broken cells were centrifuged at 15,000 g for 30 min. Aliquots (0.1 ml) of the supernatant were preincubated with or without drugs in Hepes buffer (10 mM Hepes, pH 7, 1 mM EDTA and 150 mM NaCl) for 5 min, and the reaction was initiated with the addition of 50 µl of CaCl2 (16 mM), 50 µl of ATP (2 mM), 5 µl of PAF (2.5 mg/ml) and 5 µl of AA (2.5 mM). The reaction mixture ([…]) was incubated at room temperature for a further 8 min, then diluted with EIA buffer at 1/200 and 1/2000 dilutions and stored on ice for EIA following the protocol provided with the kit.
Validation of LP enzyme activity was carried out by a UV spectrophotometric method in which the enzyme activity was characterised against various concentrations of Ca^2+, ATP, PAF and AA with the measurement of the formation of diene conjugated products of LP at 235 nm.
All compounds were dissolved in DMSO and assayed at a final concentration of 10 µM. NDGA was used as reference compound. The concentration of DMSO in the assay was maintained at 1.5%.

guinea pig atria = assay: Organ bath assay on isolated guinea pig atria (rate and force of contraction)
Description: Male guinea pigs, 3-4 weeks old, were killed by rapid cervical dislocation without induced anaesthesia. Then, the guinea pigs were dissected to isolate the atria which were immediately mounted vertically in an organ bath containing Krebs-Henseleit solution oxygenated with carbogen.
One gram tension was applied to the atria and the base line continuously adjusted until it was stable for 20 mins. The rate and force of contraction were recorded using Mac Lab equipment.
Test substances in DMSO were assayed to a maximum concentration of 50 µM at a final concentration of 2.5 % of DMSO.

SR Ca^2+-ATPase = molecular target: T2, SR Ca^2+-ATPase (Canis lupus familiaris, UniProt O46674); assay: Sarcoplasmic reticulum Ca^2+-ATPase assay; format: biochemical, dog; conditions: result in words
T2 construct: Effect of gingerols and their derivatives on the Ca^2+-ATPase activity of dog cardiac SR; from tissue; host or cells: dog heart (cardiac sarcoplasmic reticulum)
Description: A portion at each concentration (54 µl) was aliquoted into 4 designated wells of the microplate (two of four wells were controls). Each well was mixed with ATP solution (20 mM, 6 µl), except the controls, using an 8 channel pipette. The controls were assayed in the absence of ATP or calcium.
The plate was incubated with the lid on, for 30 min at 37°C, colour reagent (160 µl) was then added and mixed with citrate solution (34%, 30 µl). The plate was developed at room temperature for 30 min then absorbance at 655 nm was read from the microplate reader. The Ca^2+-ATPase activity was quantitated, from a Pi standard curve, as concentration of liberated inorganic phosphate.
Stock solutions (10 mM) of test substance were prepared in DMSO, then series dilutions were made either in DMSO or in 1M HEPES to produce the dose-response concentrations. The maximum concentration of DMSO in the final assay solution was 2.5%.
Each concentration of test substance was assayed in duplicate in the presence and absence of ATP or calcium. Phosphate standards are run on each plate as follows:
Effect of gingerols and their derivatives on the Ca^2+-ATPase activity of dog cardiac SR.

[1] = result in words, guinea pig atria

T2 sequence (O46674 whole entry): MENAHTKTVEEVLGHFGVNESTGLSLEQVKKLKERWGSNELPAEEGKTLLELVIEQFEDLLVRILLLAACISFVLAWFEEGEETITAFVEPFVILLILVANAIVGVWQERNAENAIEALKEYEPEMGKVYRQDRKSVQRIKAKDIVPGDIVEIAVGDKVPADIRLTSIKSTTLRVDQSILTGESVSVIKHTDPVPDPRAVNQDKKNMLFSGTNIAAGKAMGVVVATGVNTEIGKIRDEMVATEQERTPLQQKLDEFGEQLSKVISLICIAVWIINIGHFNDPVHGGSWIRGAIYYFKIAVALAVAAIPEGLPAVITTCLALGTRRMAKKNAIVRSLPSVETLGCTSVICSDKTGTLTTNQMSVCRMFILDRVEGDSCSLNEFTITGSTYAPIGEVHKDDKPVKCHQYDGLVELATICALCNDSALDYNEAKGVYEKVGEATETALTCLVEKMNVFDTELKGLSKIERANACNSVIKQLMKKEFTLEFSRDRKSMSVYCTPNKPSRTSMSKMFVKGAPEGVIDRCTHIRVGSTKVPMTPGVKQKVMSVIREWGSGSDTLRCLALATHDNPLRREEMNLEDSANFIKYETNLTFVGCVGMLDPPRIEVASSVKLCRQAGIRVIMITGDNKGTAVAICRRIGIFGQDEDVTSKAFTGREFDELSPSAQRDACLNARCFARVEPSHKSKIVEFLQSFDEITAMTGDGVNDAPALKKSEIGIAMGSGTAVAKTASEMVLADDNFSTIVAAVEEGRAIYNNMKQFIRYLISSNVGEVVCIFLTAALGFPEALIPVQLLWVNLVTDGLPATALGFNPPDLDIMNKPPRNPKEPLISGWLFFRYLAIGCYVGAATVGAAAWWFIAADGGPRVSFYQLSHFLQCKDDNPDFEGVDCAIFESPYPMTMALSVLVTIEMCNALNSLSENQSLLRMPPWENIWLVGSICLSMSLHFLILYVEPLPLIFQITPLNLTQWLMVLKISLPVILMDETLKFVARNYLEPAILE

## CCCCCCCCCC(O)C(=O)c1ccc(O)c(OC)c1 (centres unmarked) [2-hydroxy-1-(4-hydroxy-3-methoxyphenyl)undecan-1-one]
DRG neuronal cells; 10 µM applied for 1 min
  Number of capsaicin-sensitive cells responding: 2
  Peak [Ca^2+]i (Average ±SD): 215 ± 7 nM
Cyclo-oxygenase (COX); final concentration of 10 µM
  Cyclooxygenase activity % activity: 95%
Lipoxygenase (LP)
  activity at 10 µM: 61%

## COc1cc(CNC(=O)CCCC/C=C/C(C)C)ccc1O [Capsaicin, reference compound]
Guinea pig atria; result in words
  tachycardial and inotropic effects on guinea pig atria: tachycardial and inotropic effects
DRG neuronal cells; high responses, 10 µM
  Number of capsaicin-sensitive cells responding: 5
  Peak [Ca^2+]i (Average ±SD): 824 ± 122 (high responses) nM
DRG neuronal cells; in Ca^2+-free medium or on application of ruthenium red (1 µM)
  evoked [Ca^2+]i transients: abolished or greatly diminished
DRG neuronal cells; low responses, 10 µM
  Number of capsaicin-sensitive cells responding: 10
  Peak [Ca^2+]i (Average ±SD): 134 ± 78 (low responses) nM

## C[C@H]1O[C@@H](O[C@H]2[C@@H](O)C[C@H](O[C@H]3[C@@H](O)C[C@H](O[C@H]4CC[C@@]5(C)[C@H](CC[C@@H]6[C@@H]5C[C@@H](O)[C@]5(C)[C@@H](C7=CC(=O)OC7)CC[C@]65O)C4)O[C@@H]3C)O[C@@H]2C)C[C@H](O)[C@@H]1O [Digoxin, reference compound]
Guinea pig atria; guinea pig atria
  time for tension to reach maximum after addition of a dose: a few mins

## COc1ccc2c(c1)c(CC(=O)O)c(C)n2C(=O)c1ccc(Cl)cc1 [Indomethacin, reference compound]
Cyclo-oxygenase (COX); 1 µM
  Cyclooxygenase activity % activity: 23%

## CC(Cc1ccc(O)c(O)c1)C(C)Cc1ccc(O)c(O)c1 (centres unmarked) [NDGA, reference compound]
Lipoxygenase (LP); 0.5 µM
  activity at 0.5 µM: 20%

## CCCCCCCC=CC(=O)CCc1ccc(O)c(OC)c1 [[8]-shogaol, 1-(4-hydroxy-3-methoxyphenyl)dodecan-4-ene-3-one, reference compound]
DRG neuronal cells; 10 µM applied for 1 min
  Number of capsaicin-sensitive cells responding: 2
  Peak [Ca^2+]i (Average ±SD): 110 ± 56 nM
Cyclo-oxygenase (COX); final concentration of 10 µM
  Cyclooxygenase activity % activity: 21%
Lipoxygenase (LP)
  activity at 10 µM: 0%

## COc1cc(CCC(=O)CC(O)CCCCCCC(O)CC(=O)CCc2ccc(O)c(OC)c2)ccc1O (centres unmarked) [bisgingerol, 5,12-dihydroxy-1,16-bis(4-hydroxy-3-methoxyphenyl)hexadecane-3,14-dione]
Guinea pig atria; [1]
  FORCE OF CONTRACT^n: inactive
  HEART RATE: inactive

## CCCCCCCC(O)CC(=O)CCc1ccc2c(c1)OCO2 (centres unmarked) [drawing 42]
SR Ca^2+-ATPase
  SR Ca^2+-ATPase: inactive
